Assay results reported in ChEMBL document CHEMBL4000188, “Synthesis and antimicrobial evaluation of novel analogues of dehydroabietic acid prepared by CH-Activation” (Eur J Med Chem, 2017).
≈ marks a conversion by molar mass, not a printed value. Calls of active or inactive are those of the source. The rule behind the calls is not given here.

What was measured:
[1] = Solubility of the compound in DMSO; format: physicochemical
Staphylococcus aureus [2] = assay: Anti-bacterial activity against methicillin/oxacillin-resistant Staphylococcus aureus ATCC 43300 at 32 ug/ml measured after 18 hrs; format: functional
Staphylococcus aureus [3] = assay: Anti-bacterial activity against methicillin-resistant Staphylococcus aureus ATCC 43300 measured after 18 hrs; format: functional; settings: ATCC 43300, 18 h

solubility [1] | SMILES | Activity (Staphylococcus aureus [2]) | other results
Insoluble | COc1ccc(C[C@@]2(C(N)=O)CCC[C@]3(C)c4ccc(C(C)C)cc4CC[C@@H]23)cc1 | – | –
– | CC(C)c1ccc2c(c1)CC[C@H]1[C@](Cc3ccc(C(F)(F)F)cc3)(C(=O)O)CCC[C@]21C | Active | –
– | COc1ccc(C[C@@]2(C(=O)O)CCC[C@]3(C)c4ccc(C(C)C)cc4CC[C@@H]23)cc1 | Active | –
– | CC(C)c1ccc2c(c1)CC[C@H]1[C@](Cc3ccc(C(=O)O)cc3)(C(N)=O)CCC[C@]21C | – | MIC80 (Staphylococcus aureus [3]): 32 µg/mL (≈ 76.3 µM)
Insoluble | CC(C)c1ccc2c(c1)CC[C@H]1[C@](Cc3ccc(C(F)(F)F)cc3)(C(N)=O)CCC[C@]21C | – | –
– | Cc1ccc(C[C@@]2(C(=O)O)CCC[C@]3(C)c4ccc(C(C)C)cc4CC[C@@H]23)cc1 | Active | –
Insoluble | Cc1ccc(C[C@@]2(C(N)=O)CCC[C@]3(C)c4ccc(C(C)C)cc4CC[C@@H]23)cc1 | – | –
– | CN[C@H](CC(C)C)C(=O)N[C@H]1C(=O)N[C@@H](CC(N)=O)C(=O)N[C@H]2C(=O)N[C@H]3C(=O)N[C@H](C(=O)N[C@H](C(=O)O)c4cc(O)cc(O)c4-c4cc3ccc4O)[C@H](O)c3ccc(c(Cl)c3)Oc3cc2cc(c3O[C@@H]2O[C@H](CO)[C@@H](O)[C@H](O)[C@H]2O[C@H]2C[C@](C)(N)[C@H](O)[C@H](C)O2)Oc2ccc(cc2Cl)[C@H]1O [VANCOMYCIN] | – | MIC80 (Staphylococcus aureus [3]): 1 µg/mL (≈ 0.69 µM)
